Data published in ChEMBL document CHEMBL2157957, “Strategies to mitigate the bioactivation of 2-anilino-7-aryl-pyrrolo[2,1-f][1,2,4]triazines: identification of orally bioavailable, efficacious ALK inhibitors” (J Med Chem, 2012).

How the values were obtained:
[1] = molecular target: ALK tyrosine kinase receptor (Homo sapiens, UniProt Q9UM73); assay: Inhibition of GST-tagged human ALK cytoplasmic domain (1058-1620) expressed in Sf21 insect cells using GST-tagged human recombinant PLC-gamma/substrate by ELISA
[2] = molecular target: Insulin receptor (Homo sapiens, UniProt P06213); assay: Inhibition of IR
[3] = molecular target: NPM/ALK (Nucleophosmin/ALK tyrosine kinase receptor) (Homo sapiens, UniProt Q9UM73); assay: Inhibition of human NPM-ALK phosphorylation using 4-MeUP substrate by cell based assay
[4] = Half life in Sprague-Dawley rat at 1 mg/kg, iv; format: ADME, organism-based; set-up: dose 1 mg/kg, route intravenous; conditions: in vivo
[5] = Clearance in Sprague-Dawley rat at 1 mg/kg, iv; format: ADME, organism-based; set-up: dose 1 mg/kg, route intravenous; conditions: in vivo
[6] = Oral bioavailability in Sprague-Dawley rat at 5 mg/kg; format: ADME, organism-based; conditions: in vivo
[7] = Half life in Sprague-Dawley rat liver microsomes at 0.5 uM preincubated for 10 mins before NADPH and UDPGA challenge; format: ADME, Microsome
[8] = Half life in monkey liver microsomes at 0.5 uM preincubated for 10 mins before NADPH and UDPGA challenge; format: ADME, Macaca mulatta, Microsome; conditions: rhesus monkey
[9] = Half life in human liver microsomes at 0.5 uM preincubated for 10 mins before NADPH and UDPGA challenge; format: ADME, Microsome
[10] = Half life in CD1 mouse liver microsomes at 0.5 uM preincubated for 10 mins before NADPH and UDPGA challenge; format: ADME, Microsome
[11] = Half life in rat liver S9 fraction; format: ADME, subcellular
[12] = tested on: Mus musculus; assay: Inhibition of NPM-ALK phosphorylation in human SUP-M2 cells xenografted in SCID mouse at 30 mg/kg, po administered as single dose measured 12 hrs post dose; format: functional; conditions: SUP-M2, 12 h
[13] = AUC (0 to t) in Sprague-Dawley rat at 5 mg/kg, po; format: ADME, organism-based; set-up: dose 5 mg/kg, route oral; conditions: plasma

Insulin receptor, sequence (P06213 28-758 limits assumed): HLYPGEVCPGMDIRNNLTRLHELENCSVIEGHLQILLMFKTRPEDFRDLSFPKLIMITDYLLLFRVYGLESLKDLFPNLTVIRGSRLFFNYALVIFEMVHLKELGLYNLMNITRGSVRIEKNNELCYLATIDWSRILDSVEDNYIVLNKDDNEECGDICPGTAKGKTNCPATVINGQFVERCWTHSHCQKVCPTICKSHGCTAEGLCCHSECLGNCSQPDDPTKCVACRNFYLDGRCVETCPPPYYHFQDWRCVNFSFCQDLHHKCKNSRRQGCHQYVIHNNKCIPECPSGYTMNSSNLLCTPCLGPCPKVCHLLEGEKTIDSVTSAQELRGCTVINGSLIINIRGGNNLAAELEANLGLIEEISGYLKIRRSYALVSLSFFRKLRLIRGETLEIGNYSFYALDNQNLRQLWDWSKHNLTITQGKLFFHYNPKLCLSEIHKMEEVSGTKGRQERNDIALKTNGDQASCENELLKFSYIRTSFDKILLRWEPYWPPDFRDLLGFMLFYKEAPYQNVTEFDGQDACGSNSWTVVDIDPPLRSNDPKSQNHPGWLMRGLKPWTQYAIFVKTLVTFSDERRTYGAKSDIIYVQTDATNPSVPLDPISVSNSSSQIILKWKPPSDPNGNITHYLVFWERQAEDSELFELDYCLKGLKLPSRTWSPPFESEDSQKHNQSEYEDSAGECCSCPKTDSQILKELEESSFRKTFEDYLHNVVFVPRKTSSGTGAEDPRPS
Insulin receptor, sequence (P06213 763-1382 limits assumed): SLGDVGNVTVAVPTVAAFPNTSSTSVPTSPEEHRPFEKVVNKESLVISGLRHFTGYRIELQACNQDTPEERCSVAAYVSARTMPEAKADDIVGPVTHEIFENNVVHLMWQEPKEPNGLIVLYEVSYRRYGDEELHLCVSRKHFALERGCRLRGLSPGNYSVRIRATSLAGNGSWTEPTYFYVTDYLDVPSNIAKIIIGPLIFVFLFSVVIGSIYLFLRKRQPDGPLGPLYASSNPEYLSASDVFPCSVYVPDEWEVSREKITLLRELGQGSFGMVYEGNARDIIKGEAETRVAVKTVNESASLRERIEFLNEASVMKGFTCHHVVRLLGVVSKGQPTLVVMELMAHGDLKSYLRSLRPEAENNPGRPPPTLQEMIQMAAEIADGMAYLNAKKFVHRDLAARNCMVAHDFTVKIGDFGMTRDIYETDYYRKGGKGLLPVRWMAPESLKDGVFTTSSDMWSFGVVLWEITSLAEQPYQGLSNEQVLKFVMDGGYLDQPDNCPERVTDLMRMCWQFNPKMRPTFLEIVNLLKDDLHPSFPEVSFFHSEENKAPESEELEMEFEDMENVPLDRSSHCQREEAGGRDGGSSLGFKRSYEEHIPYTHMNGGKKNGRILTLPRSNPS
NPM/ALK (Nucleophosmin/ALK tyrosine kinase receptor), sequence (Q9UM73 whole entry): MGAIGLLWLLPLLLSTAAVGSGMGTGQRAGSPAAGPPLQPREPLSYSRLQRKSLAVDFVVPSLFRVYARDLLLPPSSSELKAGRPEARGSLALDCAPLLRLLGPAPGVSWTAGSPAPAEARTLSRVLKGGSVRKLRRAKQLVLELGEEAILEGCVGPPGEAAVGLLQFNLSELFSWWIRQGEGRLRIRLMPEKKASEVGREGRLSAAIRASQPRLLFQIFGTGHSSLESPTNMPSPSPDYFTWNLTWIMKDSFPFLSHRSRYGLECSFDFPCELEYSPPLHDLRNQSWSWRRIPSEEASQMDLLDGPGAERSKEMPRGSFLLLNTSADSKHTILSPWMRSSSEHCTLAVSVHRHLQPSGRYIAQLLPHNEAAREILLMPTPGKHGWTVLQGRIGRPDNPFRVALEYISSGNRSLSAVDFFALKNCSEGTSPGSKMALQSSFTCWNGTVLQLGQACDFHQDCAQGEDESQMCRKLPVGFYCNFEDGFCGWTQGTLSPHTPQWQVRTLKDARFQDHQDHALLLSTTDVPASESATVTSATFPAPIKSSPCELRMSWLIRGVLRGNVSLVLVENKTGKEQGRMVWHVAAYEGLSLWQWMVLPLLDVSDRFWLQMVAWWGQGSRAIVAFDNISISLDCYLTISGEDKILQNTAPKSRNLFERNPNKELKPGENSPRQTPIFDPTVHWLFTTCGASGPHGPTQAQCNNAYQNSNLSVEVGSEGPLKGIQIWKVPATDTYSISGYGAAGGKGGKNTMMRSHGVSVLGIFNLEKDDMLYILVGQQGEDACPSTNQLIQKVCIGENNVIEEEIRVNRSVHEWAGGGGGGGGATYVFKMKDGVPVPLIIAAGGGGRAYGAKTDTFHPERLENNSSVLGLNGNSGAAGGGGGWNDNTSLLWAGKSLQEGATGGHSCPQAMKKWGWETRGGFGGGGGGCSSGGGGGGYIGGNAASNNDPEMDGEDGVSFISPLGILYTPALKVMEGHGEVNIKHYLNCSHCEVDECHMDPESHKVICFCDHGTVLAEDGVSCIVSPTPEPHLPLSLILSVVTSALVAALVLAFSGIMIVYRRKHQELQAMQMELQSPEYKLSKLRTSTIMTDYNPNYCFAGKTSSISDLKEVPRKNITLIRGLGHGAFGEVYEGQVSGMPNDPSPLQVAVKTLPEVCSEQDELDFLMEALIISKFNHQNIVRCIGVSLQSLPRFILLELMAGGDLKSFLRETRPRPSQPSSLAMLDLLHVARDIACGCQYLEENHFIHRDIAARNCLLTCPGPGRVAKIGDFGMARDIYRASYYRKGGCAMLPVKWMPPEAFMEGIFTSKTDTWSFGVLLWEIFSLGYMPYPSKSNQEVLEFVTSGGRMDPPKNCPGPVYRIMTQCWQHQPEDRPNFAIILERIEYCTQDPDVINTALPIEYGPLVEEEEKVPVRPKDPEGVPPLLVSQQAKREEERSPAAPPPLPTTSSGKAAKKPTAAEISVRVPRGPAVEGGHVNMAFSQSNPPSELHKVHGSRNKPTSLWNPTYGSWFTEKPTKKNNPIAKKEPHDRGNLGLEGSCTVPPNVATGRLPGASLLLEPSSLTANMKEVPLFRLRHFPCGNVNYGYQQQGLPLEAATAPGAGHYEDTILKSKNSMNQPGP
NPM/ALK (Nucleophosmin/ALK tyrosine kinase receptor), sequence (P06748 whole entry, further chain): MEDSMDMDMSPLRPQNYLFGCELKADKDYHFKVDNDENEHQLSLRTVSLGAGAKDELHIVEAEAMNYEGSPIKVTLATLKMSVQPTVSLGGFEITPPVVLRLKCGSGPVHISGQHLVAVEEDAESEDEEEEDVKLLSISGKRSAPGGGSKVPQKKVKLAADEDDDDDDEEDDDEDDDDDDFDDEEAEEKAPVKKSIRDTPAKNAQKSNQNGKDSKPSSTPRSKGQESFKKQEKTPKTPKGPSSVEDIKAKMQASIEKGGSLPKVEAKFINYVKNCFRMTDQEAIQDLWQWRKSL
ALK tyrosine kinase receptor, sequence (Q9UM73 whole entry, the tested form may be a part): as the sequence (Q9UM73 whole entry) above

Row | SMILES | IC50 [1] [nM] | IC50 [2] [nM] | IC50 [3] [nM] | half-life [4] [min] | clearance [5] [mL/min/kg] | bioavailability [6] [%] | half-life at 0.5 µM [7] [min] | half-life at 0.5 µM [8] [min] | half-life at 0.5 µM [9] [min] | half-life at 0.5 µM [10] [min] | half-life [11] [min] | AUC(0-t) [13] [ng·h/mL] | inhibition in vivo at 30 mg/kg [12] [%]
1 | COc1ccc(N2CCN(C)CC2)cc1Nc1ncc2ccc(-c3ccccc3OC)n2n1 | 187 |  |  |  |  |  |  |  |  |  |  |  | 
2 | COc1cc(C2CCN(CC(N)=O)CC2)ccc1Nc1ncc2ccc(-c3ccncc3OC)n2n1 | 9 | 410 | 150 |  |  |  |  |  |  |  |  |  | 
3 | COc1cc(N2CCN(C[C@H](C)O)CC2)c(F)cc1Nc1ncc2ccc(-c3ccccc3N(C)S(C)(=O)=O)n2n1 | 14 |  | 200 |  |  |  |  |  |  |  |  |  | 
4 | COc1cc(C2CCN(C[C@@H](C)O)CC2)ccc1Nc1ncc2ccc(-c3ccccc3N(C)S(C)(=O)=O)n2n1 | 6 |  | 70 |  |  |  | 11 | < 5 | < 5 | > 40 |  |  | 
5 | COc1cc(C2CCN(CC(N)=O)CC2)ccc1Nc1ncc2ccc(-c3ncccc3OC)n2n1 | 1060 | > 10000 |  |  |  |  |  |  |  |  |  |  | 
6 | COc1cc(C2CCN(CCO)CC2)ccc1Nc1ncc2ccc(-c3ccccc3N(C)S(C)(=O)=O)n2n1 | 6 |  | 60 |  |  |  | 21 | < 5 | < 5 | > 40 |  |  | 
7 | COc1cc(C2CCN(C(=O)C(C)(C)N)CC2)ccc1Nc1ncc2ccc(-c3ccccc3OC)n2n1 | 7 | 579 | 150 | 156 | 25 | 13 | > 40 |  |  |  | > 40 |  | 
8 | COc1cc(C2CCN(CC(N)=O)CC2)ccc1Nc1ncc2ccc(-c3ccccc3N(C)S(C)(=O)=O)n2n1 | 15 | 552 | 80 |  |  |  | < 5 | < 5 | < 5 | 29 |  |  | 

More lines, in order of falling IC50 [1], values ahead:

Row | IC50 [1] [nM] | IC50 [2] [nM] | IC50 [3] [nM] | half-life [4] [min] | clearance [5] [mL/min/kg] | bioavailability [6] [%] | half-life at 0.5 µM [7] [min] | half-life at 0.5 µM [8] [min] | half-life at 0.5 µM [9] [min] | half-life at 0.5 µM [10] [min] | half-life [11] [min] | AUC(0-t) [13] [ng·h/mL] | SMILES | inhibition in vivo at 30 mg/kg [12] [%]
9 | 6 | 222 | 70 | 84 | 29 | 3 |  |  |  |  |  |  | COc1cc(C2CCN(C)CC2)ccc1Nc1ncc2ccc(-c3ccccc3OC)n2n1 | 
10 | 4.7 |  | 70 | > 120 | ≤ 4 | 41 | > 40 | 15 | 37 | > 40 |  |  | COc1cc(C2CCN(CC(N)=O)CC2)ccc1Nc1ncc2c(Cl)cc(-c3ccccc3N(C)S(C)(=O)=O)n2n1 | < 75
11 | 3.4 |  | 100 |  |  | < 1 | > 40 | 21 | > 40 | > 40 | > 40 | 11 | COc1cc(C2CCN(C[C@@H](C)O)CC2)ccc1Nc1ncc2ccc(-c3ccccc3OC)n2n1 | 
12 | 2.9 | 164 | 30 | 120 | 39 | 15 | > 40 |  |  |  | > 40 |  | COc1cc(C2CCN(C[C@H](O)CO)CC2)ccc1Nc1ncc2ccc(-c3ccccc3OC)n2n1 | 
